Laboratory results taken from US20210052524A1, “N-ACETYLCYSTEINE AND UREA-BASED FORMULATION FOR THE TREATMENT OF DERMATOLOGICAL DISORDERS” (DERMALENA DI CALDERAN ANDREA, priority 2017, published 2021).

Experiments:
[1] = system: complex regional pain syndrome type I; conditions: 50% DMSO applied topically, N-acetylcysteine taken orally; cited from earlier work
[2] = system: abdominal incisional wound subjected to radiation; conditions: oral and intra-peritoneal administration, model subjected to radiation; cited from earlier work
[3] = Stability of the active ingredients in the formulation buffered to pH 5.5-6.5; assay type: physicochemical; conditions: pH 5.5-6.5 (lactic acid neutralized with sodium hydroxide) compared to more acidic or more basic conditions
Excerpt: Preferably, the present formulation for topical use is in the form of a cream or a lotion, and preferably has a pH between 5.5 and 6.5, advantageously about 6.

Compound	efficacy in the treatment of complex regional pain syndrome type I [1]	effect on histological, biochemical and mechanical parameters of incisional wound healing [2]	stability [3]
C[S+](C)[O-] [50% DMSO, DMSO]	equally efficient		
CC(=O)N[C@@H](CS)C(=O)O [N-acetylcysteine]	equally efficient	effectiveness	improved
NC(N)=O [urea]			improved
